The first data set in a line: HPLC capacity factor (k).
Conditions: not given
It is filed as ADME.
With `CC(=O)Nc1ccc(O)cc1` [ACETAMINOPHEN], the “Log K'w” value was -0.02.
Turning to `Oc1ncnc2[nH]ncc12` [ALLOPURINOL], the “Log K'w” value is on record as -0.89.
Turning to `Cc1cc(=O)n(-c2ccccc2)n1C` [ANTIPYRINE], the “Log K'w” value is given as 0.09.
In the case of `O=C1CN=C(c2ccccn2)c2cc(Br)ccc2N1` [BROMAZEPAM], the “Log K'w” value amounted to 1.13.
In the case of `NC(=O)N1c2ccccc2C=Cc2ccccc21` [CARBAMAZEPINE], the “Log K'w” value turned out to be 1.7.
Same read-out and setting: then `O=C1Nc2ccc(Cl)cc2C(c2ccccc2Cl)=NC1O` (stereo unspecified) [LORAZEPAM], with 2.36.
As to `Cc1ncc([N+](=O)[O-])n1CCO` [METRONIDAZOLE], the “Log K'w” value is on record as -0.32.

The nature of another data set: Partition coefficient (logP). Particulars: octanol/water.
By logP is commonly meant the decadic logarithm of the partition coefficient of the neutral form, usually between octanol and water. Higher therefore signals higher lipophilicity. In the case of `Oc1cc(Cl)cc(Cl)c1`, the logP worked out at 3.68.
For `CC(=O)Nc1ccc(O)cc1` [ACETAMINOPHEN], the logP is 0.51.
On the same count and under the same terms, under `O=C1CN=C(c2ccccn2)c2cc(Br)ccc2N1` [BROMAZEPAM] stands 1.65; under `NC(=O)N1c2ccccc2C=Cc2ccccc21` [CARBAMAZEPINE], 2.19; under `CC(=O)OCC(=O)[C@@]1(O)CC[C@H]2[C@@H]3CCC4=CC(=O)CC[C@]4(C)[C@H]3[C@@H](O)C[C@@]21C` [HYDROCORTISONE ACETATE], 2.19.
As for `CN1C(=O)C(O)N=C(c2ccccc2Cl)c2cc(Cl)ccc21` (stereo unspecified) [LORMETAZEPAM], the logP came to 2.72.
`O=[N+]([O-])c1ccc(/C=N/O)o1` [NIFUROXIME] showed a logP of 1.28.
The molecule `CC(=O)CCCCn1c(=O)c2c(ncn2C)n(C)c1=O` [PENTOXIFYLLINE] yielded a logP of 0.29.
Consider `CS(=O)(=O)c1ccc([C@@H](O)[C@@H](CO)NC(=O)C(Cl)Cl)cc1` [THIAMPHENICOL], for which the lipophilicity (logP) is -0.27.
For the molecule `Cc1cccc(N(C)C(=S)Oc2ccc3ccccc3c2)c1` [TOLNAFTATE], the log partition coefficient (logP) amounted to 5.4.

A short description of the next data set: Partition coefficient (logP) (HPLC). Particulars: octanol/water.
`c1ccc2ccccc2c1` yielded a logP of 3.51.
In the case of `Oc1cc(Cl)cc(Cl)c1`, the logP came to 3.88.
As for `CSc1ncnc2c1ncn2[C@@H]1O[C@H](CO)[C@@H](O)[C@H]1O`, the logP is 0.34.
For `Brc1cnc2ccccc2c1`, the logP worked out at 2.93.
`CC(=O)Nc1ccc(O)cc1` [ACETAMINOPHEN] registered a logP of 0.11.
On the same count and under the same terms, under `Oc1ncnc2[nH]ncc12` [ALLOPURINOL] stands -0.85.
Still for that read-out and setting: then `c1ccc(-c2ccc(C(c3ccccc3)n3ccnc3)cc2)cc1` (stereo unspecified) [BIFONAZOLE], with 4.95.
Take `O=C1CN=C(c2ccccn2)c2cc(Br)ccc2N1` [BROMAZEPAM]: the logP worked out at 1.38.
On the same count and under the same terms, then `NC(=O)N1c2ccccc2C=Cc2ccccc21` [CARBAMAZEPINE], with 2.01; and `C[C@@H]1C[C@H]2[C@@H]3CCC4=CC(=O)C=C[C@]4(C)[C@@]3(F)[C@@H](O)C[C@]2(C)[C@@]1(O)C(=O)CO` [DEXAMETHASONE], with 2.37.
For `CC/C(=C(/CC)c1ccc(O)cc1)c1ccc(O)cc1` [DIETHYLSTILBESTROL], the logP came to 4.72.
`C[C@]12CC[C@@H]3c4ccc(O)cc4CC[C@H]3[C@@H]1CC[C@@H]2O` [ESTRADIOL] showed a logP of 3.82.
For the molecule `COC1=CC(=O)C[C@@H](C)[C@]12Oc1c(Cl)c(OC)cc(OC)c1C2=O` [GRISEOFULVIN], the logP worked out at 2.57.
The same measure, in the same setting: then `CC(=O)OCC(=O)[C@@]1(O)CC[C@H]2[C@@H]3CCC4=CC(=O)CC[C@]4(C)[C@H]3[C@@H](O)C[C@@]21C` [HYDROCORTISONE ACETATE], with 2.26.
On the same count and under the same terms, under `O=C1Nc2ccc(Cl)cc2C(c2ccccc2Cl)=NC1O` (stereo unspecified) [LORAZEPAM] stands 2.74; under `CN1C(=O)C(O)N=C(c2ccccc2Cl)c2cc(Cl)ccc21` (stereo unspecified) [LORMETAZEPAM], 2.78; under `Cc1ncc([N+](=O)[O-])n1CCO` [METRONIDAZOLE], -0.22.
In turn, `O=[N+]([O-])c1ccc(/C=N/O)o1` [NIFUROXIME] gave a logP of 1.36.
Same read-out and setting: under `NC(=O)N/N=C/c1ccc([N+](=O)[O-])o1` [NITROFURAZONE] stands 0.24.
The same measure, in the same setting: under `CC(=O)CCCCn1c(=O)c2c(ncn2C)n(C)c1=O` [PENTOXIFYLLINE] stands 0.31; under `C[C@]12C=CC(=O)C=C1CC[C@@H]1[C@@H]2[C@@H](O)C[C@@]2(C)[C@H]1CC[C@]2(O)C(=O)CO` [PREDNISOLONE], 1.83; under `C[C@]12C=CC(=O)C=C1CC[C@@H]1[C@@H]2C(=O)C[C@@]2(C)[C@H]1CC[C@]2(O)C(=O)CO` [PREDNISONE], 1.47.
Still for that read-out and setting: under `c1ccc2ncccc2c1` [QUINOLINE] stands 1.85; under `CS(=O)(=O)c1ccc([C@@H](O)[C@@H](CO)NC(=O)C(Cl)Cl)cc1` [THIAMPHENICOL], -0.13; under `Cc1cccc(N(C)C(=S)Oc2ccc3ccccc3c2)c1` [TOLNAFTATE], 5.15.

Conditions in another data set: not given
On to `c1ccc2ccccc2c1`, for which the “Log k'w” value was 3.06.
For `Oc1cc(Cl)cc(Cl)c1`, the “Log k'w” value worked out at 3.4.
For the molecule `CSc1ncnc2c1ncn2[C@@H]1O[C@H](CO)[C@@H](O)[C@H]1O`, the “Log k'w” value was found to be 0.19.
The same measure, in the same setting: under `Oc1cccc(Cl)c1` stands 2.49.
On the same count and under the same terms, then `Brc1cnc2ccccc2c1`, with 2.54.
Turning to `CC(=O)c1ccccc1` [ACETOPHENONE], the “Log k'w” value worked out at 1.31.
With `c1ccc(-c2ccc(C(c3ccccc3)n3ccnc3)cc2)cc1` (stereo unspecified) [BIFONAZOLE], the “Log k'w” value was found to be 4.37.
With `Cn1c(=O)c2c(ncn2C)n(C)c1=O` [CAFFEINE], the “Log k'w” value was -0.31.
Still for that read-out and setting: under `Clc1ccccc1C(c1ccccc1)(c1ccccc1)n1ccnc1` [CLOTRIMAZOLE] stands 4.13; under `C[C@@H]1C[C@H]2[C@@H]3CCC4=CC(=O)C=C[C@]4(C)[C@@]3(F)[C@@H](O)C[C@]2(C)[C@@]1(O)C(=O)CO` [DEXAMETHASONE], 2.03.
Turning to `CC/C(=C(/CC)c1ccc(O)cc1)c1ccc(O)cc1` [DIETHYLSTILBESTROL], the “Log k'w” value is given as 4.16.
On to `C[C@]12CC[C@@H]3c4ccc(O)cc4CC[C@H]3[C@@H]1CC[C@@H]2O` [ESTRADIOL], for which the “Log k'w” value was 3.34.
On to `COC1=CC(=O)C[C@@H](C)[C@]12Oc1c(Cl)c(OC)cc(OC)c1C2=O` [GRISEOFULVIN], for which the “Log k'w” value stood at 2.21.
As for `CC(=O)OCC(=O)[C@@]1(O)CC[C@H]2[C@@H]3CCC4=CC(=O)CC[C@]4(C)[C@H]3[C@@H](O)C[C@@]21C` [HYDROCORTISONE ACETATE], the “Log k'w” value came out at 1.93.
For the molecule `C[C@]12CCC(=O)C=C1CC[C@@H]1[C@@H]2[C@@H](O)C[C@@]2(C)[C@H]1CC[C@]2(O)C(=O)CO` [HYDROCORTISONE], the “Log k'w” value turned out to be 1.43.
In the case of `CN1C(=O)C(O)N=C(c2ccccc2Cl)c2cc(Cl)ccc21` (stereo unspecified) [LORMETAZEPAM], the “Log k'w” value is listed as 2.4.
Same read-out and setting: then `O=[N+]([O-])c1ccc(/C=N/O)o1` [NIFUROXIME], with 1.11.
On to `NC(=O)N/N=C/c1ccc([N+](=O)[O-])o1` [NITROFURAZONE], for which the “Log k'w” value was found to be 0.1.
For `CC(=O)CCCCn1c(=O)c2c(ncn2C)n(C)c1=O` [PENTOXIFYLLINE], the “Log k'w” value is given as 0.16.
`C[C@]12C=CC(=O)C=C1CC[C@@H]1[C@@H]2[C@@H](O)C[C@@]2(C)[C@H]1CC[C@]2(O)C(=O)CO` [PREDNISOLONE]: the “Log k'w” value is listed as 1.54.
On the same count and under the same terms, then `C[C@]12C=CC(=O)C=C1CC[C@@H]1[C@@H]2C(=O)C[C@@]2(C)[C@H]1CC[C@]2(O)C(=O)CO` [PREDNISONE], with 1.21; and `C[C@]12CC[C@H]3[C@@H](CCC4=CC(=O)CC[C@@]43C)[C@@H]1CC[C@@H]2O` [TESTOSTERONE], with 2.74; and `CS(=O)(=O)c1ccc([C@@H](O)[C@@H](CO)NC(=O)C(Cl)Cl)cc1` [THIAMPHENICOL], with -0.24.
Turning to `Cc1cccc(N(C)C(=S)Oc2ccc3ccccc3c2)c1` [TOLNAFTATE], the “Log k'w” value was 4.55.

The values above are taken from ChEMBL document CHEMBL1133461, “ElogPoct: a tool for lipophilicity determination in drug discovery” (J Med Chem, 2000).
